Columns and labels:
Type in all cases: in vivo
[1] = system: Phakopsora pachyrhizi; experiment: Test A: test suspension sprayed on soybean seedlings, inoculated next day with Phakopsora pachyrhizi (Asian soybean rust), visual disease rating; conditions: for Test A rating (% disease control): relative to the controls
Description: General protocol for preparing test suspensions for Tests A-C: the test compounds were first dissolved in acetone in an amount equal to 3% of the final volume and then suspended at the desired concentration (in ppm) in acetone and purified water (50/50 mix by volume) containing 250 ppm of the surfactant PEG400 (polyhydric alcohol esters). The resulting test suspensions were then used in Tests A-C. The test suspension was sprayed to the point of run-off on soybean seedlings. The following day the seedlings were inoculated with a spore suspension of Phakopsora pachyrhizi (the causal agent of Asian soybean rust) and incubated in a saturated atmosphere at 22° C., for 24 h and then moved to a growth chamber at 22° C., for 8 days, after which time visual disease ratings were made. […] A dash (-) indicates the compound was not tested. The test suspensions were sprayed at the concentration listed in the column “Rate in ppm”, unless otherwise indicated.

[2] = system: Zymoseptoria tritici; experiment: Test B: test suspension sprayed on wheat seedlings, inoculated next day with Zymoseptoria tritici (wheat leaf blotch), visual disease rating
Description: General protocol for preparing test suspensions for Tests A-C: the test compounds were first dissolved in acetone in an amount equal to 3% of the final volume and then suspended at the desired concentration (in ppm) in acetone and purified water (50/50 mix by volume) containing 250 ppm of the surfactant PEG400 (polyhydric alcohol esters). The resulting test suspensions were then used in Tests A-C.
The test suspension was sprayed to the point of run-off on wheat seedlings. The following day the seedlings were inoculated with a spore suspension of Zymoseptoria tritici (the causal agent of wheat leaf blotch) and incubated in a saturated atmosphere at 24° C., for 48 h, and then moved to a growth chamber at 20° C., for 17 days, after which time visual disease ratings were made.
Results for Tests A-C are given in Table A. In the Table, a rating of 100 indicates 100% disease control and a rating of 0 indicates no disease control (relative to the controls). A dash (-) indicates the compound was not tested. The test suspensions were sprayed at the concentration listed in the column “Rate in ppm”, unless otherwise indicated. An asterisk “*” next to the rating indicates a 250 ppm test suspension was used, a double asterisk “**” next to the rating indicates a 100 ppm test suspension was used, and a triple asterisk “***” next to the rating indicates a 50 ppm test suspension was used.

[3] = system: Puccinia recondita f. sp. tritici; experiment: Test C: test suspension sprayed on wheat seedlings, inoculated next day with Puccinia recondita f. sp. tritici (wheat leaf rust), visual disease rating; conditions: for Test C rating (% disease control): relative to the controls
Description: General protocol for preparing test suspensions for Tests A-C: the test compounds were first dissolved in acetone in an amount equal to 3% of the final volume and then suspended at the desired concentration (in ppm) in acetone and purified water (50/50 mix by volume) containing 250 ppm of the surfactant PEG400 (polyhydric alcohol esters). The resulting test suspensions were then used in Tests A-C. The test suspension was sprayed to the point of run-off on wheat seedlings. The following day the seedlings were inoculated with a spore suspension of Puccinia recondita f. sp. tritici; (the causal agent of wheat leaf rust) and incubated in a saturated atmosphere at 20° C., for 24 h, and then moved to a growth chamber at 20° C., for 6 days, after which time visual disease ratings were made. […] A dash (-) indicates the compound was not tested. The test suspensions were sprayed at the concentration listed in the column “Rate in ppm”, unless otherwise indicated.

1,3-dihydro-1-methyl-3-[[4-[5-(trifluoromethyl)-1,2,4-oxadiazol-3-yl]phenyl]methyl]-2H-benzimidazol-2-one [Compound 159]
Test A disease control rating ([1]; 250 ppm test suspension): 100%
Test B disease control rating ([2]; 250 ppm test suspension): 0%
Test C disease control rating ([3]; 250 ppm test suspension): 100%

1-[[4-[5-(trifluoromethyl)-1,2,4-oxadiazol-3-yl]phenyl]methyl]-2(1H)-quinoxalinone [Compound 158]
Test A disease control rating ([1]; 250 ppm test suspension): 100%
Test B disease control rating ([2]; 250 ppm test suspension): 0%
Test C disease control rating ([3]; 250 ppm test suspension): 100%

2-[[4-[5-(trifluoromethyl)-1,2,4-oxadiazol-3-yl]phenyl]methyl]-1H-isoindole-1,3(2H)-dione [Compound 90]
Test A disease control rating ([1]; 260 ppm test suspension): 100%
Test B disease control rating ([2]; 260 ppm test suspension): 100%
Test C disease control rating ([3]; 260 ppm test suspension): 100%

4,5-dihydro-2-[[4-[5-(trifluoromethyl)-1,2,4-oxadiazol-3-yl]phenyl]methyl]-4-oxazolecarboxamide [Compound 75]
Test A disease control rating ([1]; 250 ppm test suspension): 100%
Test B disease control rating ([2]; 250 ppm test suspension): 98%
Test C disease control rating ([3]; 250 ppm test suspension): 100%

4,5-dihydro-N,N-dimethyl-2-[[4-[5-(trifluoromethyl)-1,2,4-oxadiazol-3-yl]phenyl]methyl]-4-oxazolecarboxamide [Compound 178]
Test A disease control rating ([1]; 260 ppm test suspension): 100%
Test B disease control rating ([2]; 260 ppm test suspension): 93%
Test C disease control rating ([3]; 260 ppm test suspension): 100%

COC(=O)c1nccn(Cc2ccc(-c3noc(C(F)(F)F)n3)cc2)c1=O [compound 423]
Test A rating (% disease control) ([1]; Rate 10 ppm test suspension): 86%
Test C rating (% disease control) ([3]; Rate 10 ppm test suspension): 80%

CCOC(=O)c1cnn(Cc2ccc(-c3noc(C(F)(F)F)n3)cn2)c1 [compound 424]
Test A rating (% disease control) ([1]; Rate 10 ppm test suspension): 100%
Test C rating (% disease control) ([3]; Rate 10 ppm test suspension): 96%

COC(=O)c1cnn(CCCc2ccc(-c3noc(C(F)(F)F)n3)cc2)c1 [compound 427]
Test A rating (% disease control) ([1]; Rate 50 ppm test suspension): 100%
Test C rating (% disease control) ([3]; Rate 50 ppm test suspension): 67%

CCOC(=O)c1cnn(CCCc2ccc(-c3noc(C(F)(F)F)n3)cc2)c1 [compound 428]
Test A rating (% disease control) ([1]; Rate 50 ppm test suspension): 100%
Test C rating (% disease control) ([3]; Rate 50 ppm test suspension): 100%

CCOC(=O)C1(Cc2ccc(-c3noc(C(F)(F)F)n3)cc2)CCNC1=O (stereo not shown) [compound 431]
Test A rating (% disease control) ([1]; Rate 50 ppm test suspension): 99%
Test C rating (% disease control) ([3]; Rate 50 ppm test suspension): 98%

CCOC(=O)C1(Cc2ccc(-c3noc(C(F)(F)F)n3)cc2)CCCNC1=O (stereo not shown) [compound 432]
Test A rating (% disease control) ([1]; Rate 50 ppm test suspension): 100%
Test C rating (% disease control) ([3]; Rate 50 ppm test suspension): 92%

FC(F)(F)c1nc(-c2ccc(Cn3cc4cnc(Cl)nc4n3)cc2)no1 [compound 433]
Test A rating (% disease control) ([1]; Rate 10 ppm test suspension): 100%
Test C rating (% disease control) ([3]; Rate 10 ppm test suspension): 99%

CSCC(=O)COC(=O)c1cnn(Cc2ccc(-c3noc(C(F)(F)F)n3)cc2)c1 [compound 434]
Test A rating (% disease control) ([1]; Rate 10 ppm test suspension): 100%
Test C rating (% disease control) ([3]; Rate 10 ppm test suspension): 98%

N#Cc1cnn(CCCc2ccc(-c3noc(C(F)(F)F)n3)cc2)c1 [compound 435]
Test A rating (% disease control) ([1]; Rate 10 ppm test suspension): 100%
Test C rating (% disease control) ([3]; Rate 10 ppm test suspension): 74%

COC(=O)c1cnn(CCCc2ccc(-c3noc(C(F)(F)F)n3)cc2)c1 [compound 436]
Test A rating (% disease control) ([1]; Rate 10 ppm test suspension): 100%
Test C rating (% disease control) ([3]; Rate 10 ppm test suspension): 74%

CCOC(=O)c1cnn(CCCc2ccc(-c3noc(C(F)(F)F)n3)cc2)c1 [compound 437]
Test A rating (% disease control) ([1]; Rate 10 ppm test suspension): 100%
Test C rating (% disease control) ([3]; Rate 10 ppm test suspension): 86%

CCCOC(=O)c1cnn(Cc2cc(OC)c(-c3noc(C(F)(F)F)n3)s2)c1 [compound 439]
Test A rating (% disease control) ([1]; Rate 10 ppm test suspension): 0%
Test C rating (% disease control) ([3]; Rate 10 ppm test suspension): 0%

C=CCOC(=O)c1cnn(Cc2cc(OC)c(-c3noc(C(F)(F)F)n3)s2)c1 [compound 440]
Test A rating (% disease control) ([1]; Rate 10 ppm test suspension): 0%
Test C rating (% disease control) ([3]; Rate 10 ppm test suspension): 0%

CC(=O)Nc1cnn(Cc2ccc(-c3noc(C(F)(F)F)n3)cc2)c1 [compound 441]
Test A rating (% disease control) ([1]; Rate 10 ppm test suspension): 87%
Test C rating (% disease control) ([3]; Rate 10 ppm test suspension): 9%

CS(=O)(=O)Nc1cnn(Cc2ccc(-c3noc(C(F)(F)F)n3)cc2)c1 [compound 442]
Test A rating (% disease control) ([1]; Rate 10 ppm test suspension): 44%
Test C rating (% disease control) ([3]; Rate 10 ppm test suspension): 0%

CCOC(=O)Nc1cnn(Cc2ccc(-c3noc(C(F)(F)F)n3)cc2)c1 [compound 443]
Test A rating (% disease control) ([1]; Rate 10 ppm test suspension): 100%
Test C rating (% disease control) ([3]; Rate 10 ppm test suspension): 74%

FC(F)(F)c1nc(-c2ccc(Cn3ncc4c(I)ccnc43)cc2)no1 [compound 444]
Test A rating (% disease control) ([1]; Rate 10 ppm test suspension): 96%
Test C rating (% disease control) ([3]; Rate 10 ppm test suspension): 86%

FC(F)(F)c1nc(-c2ccc(Cn3cc4c(I)ccnc4n3)cc2)no1 [compound 445]
Test A rating (% disease control) ([1]; Rate 10 ppm test suspension): 100%
Test C rating (% disease control) ([3]; Rate 10 ppm test suspension): 99%

Nc1nn(Cc2ccc(-c3noc(C(F)(F)F)n3)cc2)c2ncccc12 [compound 446]
Test A rating (% disease control) ([1]; Rate 10 ppm test suspension): 99%
Test C rating (% disease control) ([3]; Rate 10 ppm test suspension): 86%

CCCCCOC(=O)c1cnn(Cc2ccc(-c3noc(C(F)(F)F)n3)cc2)c1 [compound 447]
Test A rating (% disease control) ([1]; Rate 10 ppm test suspension): 100%
Test C rating (% disease control) ([3]; Rate 10 ppm test suspension): 100%

O=C(OCCCCl)c1cnn(Cc2ccc(-c3noc(C(F)(F)F)n3)cc2)c1 [compound 448]
Test A rating (% disease control) ([1]; Rate 10 ppm test suspension): 100%
Test C rating (% disease control) ([3]; Rate 10 ppm test suspension): 100%

O=C(NCC(F)(F)F)c1cnn(Cc2ccc(-c3noc(C(F)(F)F)n3)cc2)c1 [compound 449]
Test A rating (% disease control) ([1]; Rate 10 ppm test suspension): 100%
Test C rating (% disease control) ([3]; Rate 10 ppm test suspension): 100%

CCOC(=O)c1cnn(Cc2ccc3cc(-c4noc(C(F)(F)F)n4)ccc3c2)c1 [compound 457]
Test A rating (% disease control) ([1]; Rate 50 ppm test suspension): 77%
Test C rating (% disease control) ([3]; Rate 50 ppm test suspension): 0%

O=C1N(Cc2ccc(-c3noc(C(F)(F)F)n3)cc2)CCc2cncn21 [compound 462]
Test A rating (% disease control) ([1]; Rate 10 ppm test suspension): 100%
Test C rating (% disease control) ([3]; Rate 10 ppm test suspension): 89%

COCCCOC(=O)c1cnn(Cc2ccc(-c3noc(C(F)(F)F)n3)cc2)c1 [compound 474]
Test A rating (% disease control) ([1]; Rate 10 ppm test suspension): 100%
Test C rating (% disease control) ([3]; Rate 10 ppm test suspension): 100%

O=C(OCCN1CCOCC1)c1cnn(Cc2ccc(-c3noc(C(F)(F)F)n3)cc2)c1 [compound 475]
Test A rating (% disease control) ([1]; Rate 10 ppm test suspension): 100%
Test C rating (% disease control) ([3]; Rate 10 ppm test suspension): 91%

CCOC(=O)COC(=O)c1cnn(Cc2ccc(-c3noc(C(F)(F)F)n3)cc2)c1 [compound 476]
Test A rating (% disease control) ([1]; Rate 10 ppm test suspension): 100%
Test C rating (% disease control) ([3]; Rate 10 ppm test suspension): 86%

O=C(OCCCl)c1cnn(Cc2ccc(-c3noc(C(F)(F)F)n3)cc2)c1 [compound 477]
Test A rating (% disease control) ([1]; Rate 10 ppm test suspension): 100%
Test C rating (% disease control) ([3]; Rate 10 ppm test suspension): 100%

O=C(OCCBr)c1cnn(Cc2ccc(-c3noc(C(F)(F)F)n3)cc2)c1 [compound 478]
Test A rating (% disease control) ([1]; Rate 50 ppm test suspension): 81%
Test C rating (% disease control) ([3]; Rate 50 ppm test suspension): 19%

O=C(OCc1ccccn1)c1cnn(Cc2ccc(-c3noc(C(F)(F)F)n3)cc2)c1 [compound 479]
Test A rating (% disease control) ([1]; Rate 10 ppm test suspension): 100%
Test C rating (% disease control) ([3]; Rate 10 ppm test suspension): 100%

CC(C)CCOC(=O)c1cnn(Cc2ccc(-c3noc(C(F)(F)F)n3)cc2)c1 [compound 480]
Test A rating (% disease control) ([1]; Rate 10 ppm test suspension): 100%
Test C rating (% disease control) ([3]; Rate 10 ppm test suspension): 98%

CCC(C)OC(=O)c1cnn(Cc2ccc(-c3noc(C(F)(F)F)n3)cc2)c1 (stereo not shown) [compound 481]
Test A rating (% disease control) ([1]; Rate 10 ppm test suspension): 100%
Test C rating (% disease control) ([3]; Rate 10 ppm test suspension): 100%

C=C(Cl)COC(=O)c1cnn(Cc2ccc(-c3noc(C(F)(F)F)n3)cc2)c1 [compound 482]
Test A rating (% disease control) ([1]; Rate 10 ppm test suspension): 100%
Test C rating (% disease control) ([3]; Rate 10 ppm test suspension): 100%

O=C(NCc1cccnc1)c1cnn(Cc2ccc(-c3noc(C(F)(F)F)n3)cc2)c1 [compound 483]
Test A rating (% disease control) ([1]; Rate 10 ppm test suspension): 100%
Test C rating (% disease control) ([3]; Rate 10 ppm test suspension): 54%

O=C(NCc1ccccc1)c1cnn(Cc2ccc(-c3noc(C(F)(F)F)n3)cc2)c1 [compound 484]
Test A rating (% disease control) ([1]; Rate 10 ppm test suspension): 100%
Test C rating (% disease control) ([3]; Rate 10 ppm test suspension): 100%

O=C(Nc1ccccc1)c1cnn(Cc2ccc(-c3noc(C(F)(F)F)n3)cc2)c1 [compound 485]
Test A rating (% disease control) ([1]; Rate 10 ppm test suspension): 100%
Test C rating (% disease control) ([3]; Rate 10 ppm test suspension): 99%

C=C(C#N)COC(=O)c1cnn(Cc2ccc(-c3noc(C(F)(F)F)n3)cc2)c1 [compound 486]
Test A rating (% disease control) ([1]; Rate 10 ppm test suspension): 100%
Test C rating (% disease control) ([3]; Rate 10 ppm test suspension): 89%

Cc1ccc(C(O)c2ccc(-c3noc(C(F)(F)F)n3)cc2)cc1 (stereo not shown) [compound 501]
Test A rating (% disease control) ([1]; Rate 10 ppm test suspension): 100%
Test C rating (% disease control) ([3]; Rate 10 ppm test suspension): 0%

Source: patent US12606548B2, “Fungicidal oxadiazoles” (FMC CORPORATION, priority 2019, dated 2026)
